Results on 15 compounds are retold here after PubChem BioAssay AID228 (DTP/NCI, 2004).

In this assay the test system is BDF1 mice, Friend leukemia sc, tumor weight T/C. The assay is described as follows: NCI In Vivo Anticancer Drug Screen. Data for tumor model Friend Virus Leukemia (Solid) (subcutaneous) in B6D2F1 (BDF1) mice. The following applies: endpoint: mean tumor weight, higher = larger tumour. How it is done: The antitumor activity of compounds was measured in mice bearing transplantable tumors. Survival or tumor size were measured and the results are expressed as the measurement made in the treated group (T) divided by the measurement made in the vehicle treated control group (C). The tumor model used in this assay is Friend Virus Leukemia (Solid) (subcutaneous) in B6D2F1 (BDF1) mice

The mark [1] stands for this setting: dose: 1.0 mg/kg/injection, schedule: Q01DX011 (ip), vehicle: carboxymethylcellulose (CMC).
Setting [2] is: dose: 2.0 mg/kg/injection, schedule: Q01DX011 (ip), vehicle: carboxymethylcellulose (CMC).
[3] abbreviates: dose: 4.0 mg/kg/injection, schedule: Q01DX011 (ip), vehicle: carboxymethylcellulose (CMC).
Setting [4] is: dose: 8.0 mg/kg/injection, schedule: Q01DX011 (ip), vehicle: carboxymethylcellulose (CMC).
Where [5] appears, read: dose: 10.0 mg/kg/injection, schedule: Q01DX011 (ip), vehicle: carboxymethylcellulose (CMC).

The structures appear in SMILES notation. “And” between values parts separate entries of the source, which are not always exact repeats. Equal values may be shown once. Inconclusive results are not listed.

`CC1=C2C(=C[C@@](C)(CO)[C@@H]2O)C(=O)[C@](C)(O)C12CC2`: the T/C (dose: 7.5 micrograms/kg/injection, schedule: Q01DX011 (ip), vehicle: carboxymethylcellulose (CMC)) is 121 % of control; the T/C (dose: 15.0 micrograms/kg/injection, schedule: Q01DX011 (ip), vehicle: carboxymethylcellulose (CMC)) was 91 % of control; the T/C (dose: 30.0 micrograms/kg/injection, schedule: Q01DX011 (ip), vehicle: carboxymethylcellulose (CMC)) was 69 % of control.

Take `COc1ccc(Nc2ccnc3cc(Cl)ccc23)cc1CN(CCCl)CCCl`: the T/C by setting is: under setting [1], 81 % of control; under setting [2], 76 % of control; under setting [3], 42 % of control.

Consider `CO[C@H]1[C@@H](O)C[C@H]2[C@@H]3CC=C4C[C@@H](O)CC[C@]4(C)[C@H]3CC[C@@]21C`, for which the T/C (dose: 10.0 mg/kg/injection, schedule: Q01DX011 (sc), vehicle: steriod suspending solution) was 77 % of control; the T/C (dose: 20.0 mg/kg/injection, schedule: Q01DX011 (sc), vehicle: steriod suspending solution) is 116 % of control; the T/C (dose: 40.0 mg/kg/injection, schedule: Q01DX011 (sc), vehicle: steriod suspending solution) is 115 % of control.

With `Nc1nc(SCc2ccccc2)c2[nH]cnc2n1`, the T/C runs as follows: under setting [2], 84 % of control; (dose: 3.12 mg/kg/injection, schedule: Q01DX011 (ip), vehicle: saline) 25 % of control; under setting [3], 79 % of control; (dose: 6.25 mg/kg/injection, schedule: Q01DX011 (ip), vehicle: saline) 43 % of control; under setting [4], 99 % of control; under setting [5], 46 % of control.

`CCCn1cnc2c(=S)nc(N)[nH]c21`: the T/C was 67 % of control (dose: 0.67 mg/kg/injection, schedule: Q01DX011 (ip), vehicle: carboxymethylcellulose (CMC)); 67 % of control under setting [1]; 28 % of control (dose: 1.5 mg/kg/injection, schedule: Q01DX011 (ip), vehicle: carboxymethylcellulose (CMC)); 32 % of control (dose: 2.9 mg/kg/injection, schedule: Q01DX011 (ip), vehicle: carboxymethylcellulose (CMC)); 32 % of control (dose: 4.4 mg/kg/injection, schedule: Q01DX011 (ip), vehicle: carboxymethylcellulose (CMC)).

With `C[C@H](N)C(=O)N[C@@H]1[C@H]2C(=C(O)C[C@@H](O)[C@@H]2O)C(=O)O[C@@H]1C`, the T/C is, setting by setting: (dose: 100.0 mg/kg/injection, schedule: Q01DX011 (ip), vehicle: carboxymethylcellulose (CMC)) 43 % of control; (dose: 200.0 mg/kg/injection, schedule: Q01DX011 (ip), vehicle: carboxymethylcellulose (CMC)) 48 % of control; (dose: 1000.0 mg/kg/injection, schedule: Q01DX011 (ip), vehicle: carboxymethylcellulose (CMC)) 17 % of control.

On to `CN(N=O)C(=O)Nc1c[nH]c(=O)[nH]c1=O`, for which the T/C reads like this: (dose: 5.0 mg/kg/injection, schedule: Q01DX011 (ip), vehicle: carboxymethylcellulose (CMC)) 108 % of control; under setting [5], 93 % of control; (dose: 20.0 mg/kg/injection, schedule: Q01DX011 (ip), vehicle: carboxymethylcellulose (CMC)) 91 % of control; (dose: 40.0 mg/kg/injection, schedule: Q01DX011 (ip), vehicle: carboxymethylcellulose (CMC)) 39 % of control; (dose: 60.0 mg/kg/injection, schedule: Q01DX011 (ip), vehicle: carboxymethylcellulose (CMC)) 45 % of control; (dose: 80.0 mg/kg/injection, schedule: Q01DX011 (ip), vehicle: carboxymethylcellulose (CMC)) 23 % of control.

As to `O=C1C=CC(=O)O1` (tested in a mixture with another compound), the T/C was 58 % of control (dose: 7.5 mg/kg/injection, schedule: Q#A X022 (ip), vehicle: carboxymethylcellulose (CMC)); 84 % of control (dose: 15.5 mg/kg/injection, schedule: Q#A X022 (ip), vehicle: carboxymethylcellulose (CMC)); 96 % of control (dose: 125.0 mg/kg/injection, schedule: Q#A X022 (ip), vehicle: carboxymethylcellulose (CMC)); 33 % of control (dose: 250.0 mg/kg/injection, schedule: Q#A X022 (ip), vehicle: carboxymethylcellulose (CMC)).

For the compound `CCC(=O)O[C@H]1CC[C@H]2[C@@H]3CC[C@H]4CC(=O)[C@H](C)C[C@]4(C)[C@H]3CC[C@]12C`, the T/C (dose: 42.0 mg/kg/injection, schedule: Q01DX011 (sc), vehicle: steriod suspending solution) was 212 % of control; the T/C (dose: 44.1 mg/kg/injection, schedule: Q01DX011 (sc), vehicle: steriod suspending solution) was 173 % of control; the T/C (dose: 83.0 mg/kg/injection, schedule: Q01DX011 (sc), vehicle: steriod suspending solution) is 227 % of control; the T/C (dose: 88.2 mg/kg/injection, schedule: Q01DX011 (sc), vehicle: steriod suspending solution) is 184 % of control; the T/C (dose: 176.0 mg/kg/injection, schedule: Q01DX011 (sc), vehicle: steriod suspending solution) was 225 % of control; the T/C (dose: 353.0 mg/kg/injection, schedule: Q01DX011 (sc), vehicle: steriod suspending solution) was 168 % of control and 213 % of control.

In the case of `C=CC(CN1CC1)OC(C)=O` (stereo not given), the T/C (dose: 1.2 mg/kg/injection, schedule: Q01DX011 (ip), vehicle: carboxymethylcellulose (CMC)) was 70 % of control; the T/C (dose: 2.4 mg/kg/injection, schedule: Q01DX011 (ip), vehicle: carboxymethylcellulose (CMC)) was 89 % of control; the T/C (dose: 2.5 mg/kg/injection, schedule: Q01DX011 (ip), vehicle: saline) was 50 % of control; the T/C (dose: 4.8 mg/kg/injection, schedule: Q01DX011 (ip), vehicle: carboxymethylcellulose (CMC)) is 36 % of control; the T/C (dose: 5.0 mg/kg/injection, schedule: Q01DX011 (ip), vehicle: saline) is 31 % of control; the T/C (dose: 7.5 mg/kg/injection, schedule: Q01DX011 (ip), vehicle: saline) was 26 % of control. Under “dose: 9.9 mg/kg/injection, schedule: Q01DX011 (ip), vehicle: saline”, the T/C was 3 % of control.

Regarding `O=C(NO)c1ccncc1`, the T/C runs as follows: (dose: 250.0 mg/kg/injection, schedule: Q01DX011 (ip), vehicle: saline) 79 % of control; (dose: 500.0 mg/kg/injection, schedule: Q01DX011 (ip), vehicle: saline) 78 % of control and 86 % of control; (dose: 750.0 mg/kg/injection, schedule: Q01DX011 (ip), vehicle: saline) 42 % of control and 48 % of control; (dose: 950.0 mg/kg/injection, schedule: Q01DX011 (ip), vehicle: saline) 7 % of control.

Take `CCCCn1cnc2c(SC)nc(N)nc21`: the T/C (dose: 18.75 mg/kg/injection, schedule: Q01DX011 (ip), vehicle: carboxymethylcellulose (CMC)) was 120 % of control; the T/C (dose: 37.5 mg/kg/injection, schedule: Q01DX011 (ip), vehicle: carboxymethylcellulose (CMC)) was 98 % of control; the T/C (dose: 75.0 mg/kg/injection, schedule: Q01DX011 (ip), vehicle: carboxymethylcellulose (CMC)) was 83 % of control; the T/C (dose: 150.0 mg/kg/injection, schedule: Q01DX011 (ip), vehicle: carboxymethylcellulose (CMC)) was 63 % of control.

Take `Nc1nc(F)nc2c1ncn2C1OC(CO)C(O)C1O` (stereo not given): the T/C (dose: 0.06 mg/kg/injection, schedule: Q01DX011 (ip), vehicle: saline) is 155 % of control; the T/C (dose: 0.12 mg/kg/injection, schedule: Q01DX011 (ip), vehicle: saline) was 120 % of control; the T/C (dose: 0.75 mg/kg/injection, schedule: Q01DX011 (ip), vehicle: saline) was 225 % of control; the T/C (dose: 1.5 mg/kg/injection, schedule: Q01DX011 (ip), vehicle: saline) is 203 % of control; the T/C (dose: 3.0 mg/kg/injection, schedule: Q01DX011 (ip), vehicle: saline) is 199 % of control.

In the case of `CCC1/C=C/C=C/CC(C)C(O)C(C)(O)C(=O)C(C)C(O)C(C)C(=O)C(C)C(O)C(C)/C=C/C(=O)OC2C(C)C(CC1)OC1(OC(CC(C)O)C(C)CC1=O)C2C` (stereo not given) (tested in a mixture with another compound), the T/C (dose: 1.56 mg/kg/injection, schedule: Q01DX011 (ip), vehicle: carboxymethylcellulose (CMC)) was 54 % of control; the T/C (dose: 3.12 mg/kg/injection, schedule: Q01DX011 (ip), vehicle: carboxymethylcellulose (CMC)) is 64 % of control; the T/C (dose: 6.25 mg/kg/injection, schedule: Q01DX011 (ip), vehicle: carboxymethylcellulose (CMC)) is 46 % of control.

Consider `O=C(Nc1ccc(C2=NCCCN2)cc1)c1ccc(NC(=O)c2ccc(C3=NCCCN3)cc2)cc1`, for which the T/C was 49 % of control under setting [3]; 9 % of control (dose: 6.0 mg/kg/injection, schedule: Q01DX011 (ip), vehicle: carboxymethylcellulose (CMC)); 1 % of control under setting [4].
